# Measured values reported in publication PMC11784183, “Identification of an antibiotic from an HTS targeting EF-Tu:tRNA interaction: a prospective topical treatment for MRSA skin infections” (Applied and Environmental Microbiology, 2024).
# Where two headings read alike, the source gives them in different places.
# Tests used:
# S. aureus USA300 = details: 15 µM, 0-4 h
# Protocol: S. aureus USA300 was inoculated 1:100 into LB medium from overnight cultures. Cells were grown to the early exponential phase and back diluted to OD600 0.1. […] Samples were serially diluted and plated on LB agar. Colonies were enumerated after overnight incubation at 37°C. Time-kill experiments were performed with n = 4 biological replicates.
# S. caprae = assay: MIC testing by broth microdilution; format: cell-based; details: BK strain 22945
# S. xylosus = assay: MIC testing by broth microdilution; format: cell-based; details: Staphylococcus xylosus; BK strain 26203
# S. aureus = assay: Drug susceptibility assay (96-well, MIC); format: cell-based; details: Staphylococcus aureus
# S. haemolyticus = assay: MIC testing by broth microdilution; format: cell-based; details: Staphylococcus haemolyticus; BK strain 21148
# Staphylococcus aureus = assay: MIC testing by broth microdilution; format: cell-based
# B. subtilis = assay: Inhibition of bacterial growth in liquid culture; format: cell-based; details: Bacillus subtilis
# Protocol: (§1) Strains and reagents were the same as in the zone-inhibition assay (above). […] The culture was diluted again 1/500 in 1 mL of fresh media with the presence of increasing concentrations of tested compound or 1% DMSO as a control.
# [1] = system: M. tuberculosis H37Rv (ATTC 27294); assay: Drug susceptibility assay (96-well, MIC); format: cell-based; details: Mycobacterium tuberculosis, Acid-fast
# S. epidermidis = assay: MIC testing by broth microdilution; format: cell-based
# S. pseudintermedius = assay: MIC testing by broth microdilution; format: cell-based
# S. simulans = assay: MIC testing by broth microdilution; format: cell-based; details: Staphylococcus simulans; BK strain 26201
# ERβ receptor = system: ERβ receptor; design: method as in PMID 9927308; details: cited from earlier work
# S. gallinarum = assay: MIC testing by broth microdilution; format: cell-based; details: BK strain 26189
# E. coli = assay: Inhibition of bacterial growth; format: cell-based; details: not shown
# Protocol: as §1
# S. capitis = assay: MIC testing by broth microdilution; format: cell-based; details: Staphylococcus capitis
# [2] = system: A. baumannii (ATCC 17988); assay: Drug susceptibility assay (96-well, MIC); format: cell-based; details: Acinetobacter baumannii, ATCC17988; Gram-negative
# S. sciuri = assay: MIC testing by broth microdilution; format: cell-based
# S. lentus = assay: MIC testing by broth microdilution; format: cell-based
# [3] = male, C57B6, mouse, in vivo, ip, 10 mg/kg, 7 h
# [4] = system: S. aureus USA300 subcutaneous infection; assay: Mouse skin infection model, topical ointment; format: in vivo, mice; details: topical ointment daily
# in vivo = details: male, C57B6, mouse, ip, 10 mg/kg
# [5] = system: P. aeruginosa (ATCC BAA47); assay: Drug susceptibility assay (96-well, MIC); format: cell-based; details: Pseudomonas aeruginosa, ATCCBAA47; Gram-negative
# S. saprophyticus = assay: MIC testing by broth microdilution; format: cell-based
# [6] = mouse, in vivo, ip, 10 mg/kg
# [7] = format: in vitro ADME, human
# Protocol: (§2) Briefly, each reaction mixture (110 µL) consisted of a test article (1 µM), mix gender human, male Sprague Dawley rat or male CD-1 mouse microsomal fractions (0.5 mg/mL), and NADPH regenerating system in phosphate buffer at pH 7.4. Samples were incubated in 384-well plates at 37°C for 0, 5, 10, 15, 30, and 60 min. Sample analysis and half-life calculations were performed using a previously described method ([22]). The three controls used were Buspirone (short half-life), Loperamide (moderate half-life), and Antipyrine (long half-life).
# (§3) Categories were defined as follows: unstable, t1/2 < 30 min; stable, t1/2 > 30 min.
# S. cohnii = assay: MIC testing by broth microdilution; format: cell-based; details: Staphylococcus cohnii; BK strain 22939
# [8] = system: non-aureus staphylococcal strains (14 species); assay: MIC testing by broth microdilution, panel of non-aureus staphylococcal strains; format: cell-based, Staphylococcus spp.; details: Staphylococcus; for 18 of 23 other Staphylococcal strains; read-out: MIC90 and MIC50
# [9] = system: ribosomal translation in vitro (PURExpress); assay: Purified in vitro translation assay (PURExpress); format: biochemical; details: highest concentration tested
# Source text: (A) Coomassie blue staining of sodium dodecyl sulfate polyacrylamide gel electrophoresis (SDS-PAGE) following in vitro translation with the PURExpress translation kit (New England Biolabs). The protein synthesized (Dihydrofolate reductase) in the reaction is shown in the small rectangles superimposed on the gel. (B) Quantification using a BioRad gel scanner and software provided with this scanner.
# PURExpress in vitro purified ribosomal translation kit (New England Biolabs) was used. Biochemical protocols used were as described by the manufacturer.
# [10] = format: in vitro ADME, rat
# Protocol: as §2, §3
# S. lugdunensis = assay: MIC testing by broth microdilution; format: cell-based
# [11] = system: K. pneumoniae (ATCC 43816); assay: Drug susceptibility assay (96-well, MIC); format: cell-based; details: Klebsiella pneumoniae, ATCC43816; Gram-negative
# S. warneri = assay: MIC testing by broth microdilution; format: cell-based
# Protocol for Vero cells (ATCC CCL-81): Compounds were tested for cytotoxicity against Vero cells using the CellTiter 96 AQueous One Solution Assay kit (Promega). Vero cells were seeded in 96-well plates at a density of 2 × 10^4 cells per well, and the plates were incubated for 4 h at 37°C to allow attachments of the Vero cells. Chemical compounds being tested were then added to the wells starting from a final concentration of 50 µg/mL and making 12 1:2 dilutions. Cells were incubated for 72 h at 37°C, after which 20 µL of freshly prepared MTS:PMS reagents were added to each well. Plates were incubated for 2 h and then read at an absorbance of 490 nm.
smiles,measurement,setting,value
CC[C@@H]1Cc2cc(O)ccc2C2=C1c1ccc(O)cc1C[C@H]2CC [MGC-10],bactericidal test (CFU/mL over time),S. aureus USA300,notable bactericidal activity
same,MIC,S. caprae,6 µM
same,MIC,S. xylosus,6 µM
same,MIC,S. aureus; ATCC25923,6.25 µM
same,MIC,S. aureus; ATCC35556,6.25 µM
same,MIC,"S. aureus; ATCC 43300 / MRSA, S. aureus mecA + (MRSA) (ATCC 43300), Gram-positive, read-out: MIC",6.25 µM
same,MIC,S. haemolyticus,12 µM
same,MIC,"Staphylococcus aureus; MRSA / USA300, BK strain 19494, CC 8, USA300, MRSA",6 µM
same,MIC,"Staphylococcus aureus; MRSA / USA300 / USA500, MRSA clinical isolates typed as USA300 and USA500",6 µM
same,MIC,"Staphylococcus aureus; MRSA / USA400, BK strain 19484, CC 1, USA400, MRSA",6 µM
same,MIC,"Staphylococcus aureus; MRSA / USA600, BK strain 18519, CC 45, USA600, MRSA",6 µM
same,MIC,"Staphylococcus aureus; MRSA / USA800, BK strain 18267, CC 5, USA800, MRSA",6 µM
same,MIC,"Staphylococcus aureus; MRSA, BK strain 13180, CC 8, Trimethoprim-sulfamethoxazole resistant",6 µM
same,MIC,"Staphylococcus aureus; MRSA, BK strain 21209, CC 8, Linezolid resistant",6 µM
same,MIC,"Staphylococcus aureus; MRSA, BK strain 21346, CC 5, Tigecycline resistant",6 µM
same,MIC,"Staphylococcus aureus; MRSA, BK strain 21347, CC 22, Linezolid resistant",6 µM
same,MIC,"Staphylococcus aureus; MRSA, BK strain 22522, CC 5, Vancomycin resistant (vanA+), MRSA",6 µM
same,MIC,"Staphylococcus aureus; MRSA, BK strain 22523, CC 5, Vancomycin resistant (vanA+), MRSA",6 µM
same,MIC,"Staphylococcus aureus; MRSA, BK strain 23735, CC 125, BORSA",6 µM
same,MIC,"Staphylococcus aureus; MRSA, BK strain 23736, CC 1, BORSA",6 µM
same,MIC,"Staphylococcus aureus; MRSA, BK strain 26638, CC 398, LA-MRSA",6 µM
same,MIC,"Staphylococcus aureus; MRSA, BK strain 46376, CC 8, hVISA",6 µM
same,MIC,"Staphylococcus aureus; MRSA, BK strain 46377, CC 8, hVISA",6 µM
same,MIC,"Staphylococcus aureus; MRSA, BK strain 58711, CC 5, Rifampin resistant",6 µM
same,MIC,"Staphylococcus aureus; MRSA, BK strain 59775, CC 8, Trimethoprim-sulfamethoxazole resistant",6 µM
same,MIC,"Staphylococcus aureus; MRSA, BK strain 61828, CC 398, MRSA",6 µM
same,MIC,"Staphylococcus aureus; MRSA, BK strain 62861, CC 45, MRSA",6 µM
same,MIC,"Staphylococcus aureus; MRSA, BK strain 62874, CC 59, MRSA",6 µM
same,MIC,"Staphylococcus aureus; MRSA, BK strain 62961, CC 5, MRSA",6 µM
same,MIC,"Staphylococcus aureus; MRSA, BK strain 62969, CC 5, MRSA",6 µM
same,MIC,"Staphylococcus aureus; MRSA, BK strain 62976, CC 398, MRSA",6 µM
same,MIC,"Staphylococcus aureus; MRSA, BK strain 63193, CC 30, MRSA",6 µM
same,MIC,"Staphylococcus aureus; MRSA, BK strain 63218, CC 8, MRSA",6 µM
same,MIC,"Staphylococcus aureus; MRSA, BK strain 63341, CC 8, MRSA",6 µM
same,MIC,"Staphylococcus aureus; MRSA, BK strain 63738, CC 59, MRSA",6 µM
same,MIC,"Staphylococcus aureus; MRSA, BK strain 63765, CC 30, MRSA",12 µM
same,MIC,"Staphylococcus aureus; MRSA, BK strain 63776, CC 398, MRSA",6 µM
same,MIC,"Staphylococcus aureus; MRSA, BK strain 63777, CC 45, MRSA",6 µM
same,MIC,"Staphylococcus aureus; MRSA, methicillin-resistant Staphylococcus aureus (MRSA), abstract",6 µM
same,MIC,"Staphylococcus aureus; MSSA / NCTC 8325, BK strain 21189, CC 8, MSSA (NCTC 8325)",12 µM
same,MIC,"Staphylococcus aureus; MSSA, BK strain 73239, Mupirocin R",1.5 µM
same,MIC,"Staphylococcus aureus; MSSA, BK strain 73242, Mupirocin R",3 µM
same,MIC,"Staphylococcus aureus; MSSA, BK strain 73250, Mupirocin R",3 µM
same,MIC,"Staphylococcus aureus; MSSA, BK strain 73267, Mupirocin R",6 µM
same,MIC,"Staphylococcus aureus; MSSA, BK strain 73269, Mupirocin R",6 µM
same,MIC,"Staphylococcus aureus; MSSA, BK strain 73336, Mupirocin R",12 µM
same,MIC,"Staphylococcus aureus; MSSA, BK strain 73337, Mupirocin R",3 µM
same,MIC90,"Staphylococcus aureus; for 29 of 31 MRSA strains, read-out: MIC90 and MIC50",6 µM
same,MIC,Staphylococcus aureus; laboratory S. aureus strain 8325,12 µM
same,cytotoxicity against Vero mammalian cells,Vero cells (ATCC CCL-81),no cytotoxicity
same,"MIC (cytotoxicity, Vero)","Vero cells (ATCC CCL-81); African green monkey, 72 h",50 µM
same,inhibition at 6 µM,B. subtilis,97%
same,MIC,[1],100 µM
same,MIC,"S. epidermidis; BK strain 26974, Methicillin R",6 µM
same,MIC,"S. epidermidis; Staphylococcus epidermidis, BK strain 21192, Methicillin R",6 µM
same,MIC,S. pseudintermedius; BK strain 24474,6 µM
same,MIC,S. pseudintermedius; BK strain 25938,6 µM
same,MIC,S. pseudintermedius; BK strain 26190,12 µM
same,MIC,S. simulans,6 µM
same,activity at ERβ receptor,ERβ receptor,antagonist
same,MIC,S. gallinarum,12 µM
same,inhibition of growth of E. coli,E. coli,No inhibition
same,MIC,S. capitis; BK strain 22034,12 µM
same,MIC,S. capitis; BK strain 24463,6 µM
same,MIC,[2],> 100 µM
same,MIC,S. sciuri; BK strain 26200,6 µM
same,MIC,"S. sciuri; Mammaliicoccus sciuri, BK strain 26199",6 µM
same,MIC,"S. lentus; BK strain 26639, Methicillin R",6 µM
same,MIC,"S. lentus; Mammaliicoccus lentus, BK strain 26191",6 µM
same,Clast,[3],532 ng/mL
same,dermonecrosis as a result of S. aureus infection (area over time),"[4]; 5 days, vs untreated control (ointment without drug)",able to reduce dermonecrosis
same,bacterial burden in punch biopsies,"[4]; day 5, vs untreated control",not statistically significant (P = 0.0575)
same,AUC(0-inf),in vivo,171 µg·h/mL
same,half-life,in vivo,2.1 h
same,concentration at 7 h,in vivo; Clast,733 ng/mL
same,MIC,[5],> 100 µM
same,MIC,S. saprophyticus; BK strain 26195,6 µM
same,MIC,"S. saprophyticus; Staphylococcus saprophyticus, BK strain 26194",6 µM
same,in-life observations,[6],exhibited hunched postures; and were lethargic
same,depletion of the compound in liver microsomes,[7],no depletion
same,MIC,S. cohnii,12 µM
same,MIC90,[8],6 µM
same,complete inhibition of translation,[9],complete inhibition was not achieved
same,depletion of the compound in liver microsomes,[10],no depletion
same,MIC,"S. lugdunensis; BK strain 28088, Methicillin R",6 µM
same,MIC,"S. lugdunensis; Staphylococcus lugdunensis, BK strain 26192",6 µM
same,MIC,[11],> 100 µM
same,MIC,S. warneri; BK strain 26202,6 µM
same,MIC,"S. warneri; Staphylococcus warneri, BK strain 24473",6 µM
